# System: MMP13 expression in SW1353 chondrosarcoma cell line
# Assay: MMP13 assay: IL-1/OSM-driven MMP13 expression in SW1353 cells (MMP13 ELISA)
# Assay type: cell-based
# Conditions: Homo sapiens, IL-1β and OSM, 48 hr
# Description: The protocol of the MMP13 ELISA is described in section 4.1, then testing of compounds on release of IL-1/OSM-driven MMP13 expression in SW1353 chondrosarcoma cell line is described in section 4.2.
# A 384 well format ELISA for measurement of MMP13 was developed. Various primary antibodies were tested, as well as various ELISA protocols. The following protocol is developed and validated to measure MMP13 levels in supernatant of cell cultures in 384 well plates.
# Black maxisorb 384 well plates (Nunc 460518) are coated with 35 μl of a buffered solution containing 1.5 μg/mL anti-MMP13 antibody MAB511 (R&D systems). The antibody is diluted in carbonate-bicarbonate coating buffer (1.59 g Na2CO3 (Sigma S-7795) and 2.93 g NaHCO3 (Sigma S-5761) in 1 L MilliQ water, adjusted to pH 9.6). After overnight incubation at 4° C., wells are washed twice with 100 μL PBST (80 g NaCl, 2 g KCl (Sigma), 11.5 g Na2HPO4.7H2O and 2 g KH2PO4 in 10 L milliQ water; pH 7.4+0.05% Tween-20 (Sigma)) and blocked with 100 μL/well blocking buffer (5% non fat dry milk in PBS). After overnight incubation at 4° C., wells are washed twice with 100 μL PBST. The PBST is removed and 35 μL of sample is transferred to the ELISA plates. After 4 hr incubation at RT, plates are washed twice with PBST and incubated for 1 hr at 37° C. with 35 μL/well 1.5 mM APMA solution (a 10 mM APMA stock solution is prepared one day before (35.18 mg APMA (Sigma A-9563) in 10 mL 0.1M NaOH (Merck 1.06469.1000) and stored at 4° C. Before use, the 10 mM APMA stock solution is diluted to 1.5 mM in 1×APMA buffer (10× APMA buffer: 500 mM Tris (Roche 708976), 50 mM CaCl2 (Sigma C-5080), […] ZnCl2 (Sigma Z-0173), 1.5 M NaCl (Calbiochem 567441), 0.5% Brij35 (Sigma 430 AG-6) and adjust to pH 7.0). After activation of MMP13 by APMA, plates are washed again two times with 100 μL PBST/well and 35 μL of substrate solution is added to each well. Substrate solution is prepared as follows: OmniMMP Fluorescent substrate (Biomol P-126) stock solution (2 mM in DMSO, stored at −20° C.) is diluted in 1× OmniMMP buffer (10× OmniMMP buffer: 500 mM Hepes (Sigma H4034), 100 mM CaCl2 (Sigma C5080), 0.5% Brij35 (Sigma 430 AG-6; adjusted to pH 7.0) to a final concentration of 0.01 mM. After an overnight incubation at 37° C., the active MMP13 in the sample has cleaved the substrate and released fluorescence. Readout is performed on the EnVision (Perkin Elmer) using 320 nm excitation/405 nm emission filters.
# Human chondrosarcoma cell line SW1353 was acquired from ATCC and grown in DMEM supplemented with 10% heat-inactivated FBS and 1× penicillin/streptomycin (Invitrogen) in a humidified 5% CO2 incubator at 37° C. Aliquots of the cells were frozen and cryopreserved in liquid nitrogen. Starting from a cryopreserved aliquot, cells are further grown by sub-culturing at a 1/5-1/8 ratio twice a week by trypsinisation.
# Starting from the compound master stocks (all at 10 mM concentration in 100% DMSO) a 3-fold serial dilution is made in 96-well plates in 100% DMSO. Then, plates are futher diluted 50-fold in M199 medium supplemented with 1% heat-inactivated FBS to obtain an intermediate work stock.
# At day 1, SW1353 cells are seeded in 96-well plates (flat bottom, tissue culture treated, Greiner) at a density of 15000 cells/well in 120 μL growth medium. The next day, 15 μL compound out of the intermediate work stock is added. After an incubation period of 60 minutes, which allows the compounds to equilibrate and enter the cells, cells are stimulated with a mixture of IL-1β and OSM, added in a volume of 15 μL to obtain final concentrations of 1 ng/ml IL-1β and 25 ng/ml OSM. For that, stocks of IL-1 (10 μg/ml) and OSM (25 μg/ml) (both PeproTech) were diluted to 10 ng/ml and 250 ng/ml respectively, in M199 medium supplemented with 1% FBS. After incubation for 48 hr, the cell supernatant was harvested and an appropriate dilution was processed in the MMP13 ELISA as described above, delivering raw data (RFU: relative fluorescence units). […]
row,SMILES,IC50
1,"CC(C)(C)N1C[C@@H]2C[C@H]1CN2c1ccc(Nc2ncc(-c3ccc4c(c3)CNC4=O)n3ncnc23)cc1 [Compound 16, 5-{8-(4-((1S,4S)-5-tert-butyl-2,5-diazabicyclo[2.2.1]heptan-2-yl)phenylamino)-[1,2,4]triazolo-[1,5-a]pyrazin-5-yl}-2,3-dihydro-isoindol-1-one]",> 1000 nM
2,"CC(C)N1C[C@@H]2C[C@H]1CN2c1ccc(Nc2ncc(-c3cc[nH]c(=O)c3)n3ncnc23)cc1 [Compound 20, 4-(8-(4-((1S,4S)-5-isopropyl-2,5-diazabicyclo[2.2.1]heptan-2-yl)phenylamino)-[1,2,4]triazolo[1,5-a]pyrazin-5-yl)pyridin-2(1H)-one]",> 1000 nM
3,"CC(C)N1C[C@@H]2C[C@H]1CN2c1cccc(Nc2ncc(-c3coc(C(N)=O)c3)n3ncnc23)c1 [Compound 24, 4-(8-(3-((1S,4S)-5-isopropyl-2,5-diazabicyclo[2.2.1]heptan-2-yl)phenylamino)-[1,2,4]triazolo[1,5-a]pyrazin-5-yl)furan-2-carboxamide]",> 1000 nM
4,"CC(C)N1C[C@@H]2C[C@H]1CN2c1ccc(Nc2ncc(-c3noc(C(N)=O)n3)n3ncnc23)cc1 [Compound 23, 3-(8-(4-((1S,4S)-5-isopropyl-2,5-diazabicyclo[2.2.1]heptan-2-yl)phenylamino)-[1,2,4]triazolo[1,5-a]pyrazin-5-yl)-1,2,4-oxadiazole-5-carboxamide]",> 1000 nM
5,"CC(C)N1C[C@@H]2C[C@H]1CN2c1ccc(Nc2ncc(-c3coc(C(N)=O)c3)n3ccnc23)cc1 [Compound 4, 4-{8-[4-((1S,4S)-5-Isopropyl-2,5-diaza-bicyclo[2.2.1]hept-2-yl)-phenylamino]-imidazo[1,2-a]pyrazin-5-yl}-furan-2-carboxamide]",> 1000 nM
6,"CC(C)N1C[C@@H]2C[C@H]1CN2c1ccc(Nc2ncc(-c3ccc4c(c3)CNC4=O)n3ncnc23)cc1 [Compound 1, 5-{8-[4-((1S,4S)-5-Isopropyl-2,5-diaza-bicyclo[2.2.1]hept-2-yl)-phenylamino]-[1,2,4]triazolo[1,5-a]pyrazin-5-yl}-2,3-dihydro-isoindol-1-one]",> 1000 nM
7,"CC(C)N1C[C@@H]2C[C@H]1CN2c1ccc(Nc2ncc(-c3coc(C(N)=O)c3)n3ncnc23)cc1 [Compound 2, 4-{8-[4-((1S,4S)-5-Isopropyl-2,5-diaza-bicyclo[2.2.1]hept-2-yl)-phenylamino]-[1,2,4]triazolo[1,5-a]pyrazin-5-yl}-furan-2-carboxamide]",1 to 500 nM
8,"CC(C)(C)N1C[C@@H]2C[C@H]1CN2c1ccc(Nc2ncc(-c3cc(C(N)=O)n[nH]3)n3ncnc23)cc1 [Compound 17, 5-{8-(4-((1S,4S)-5-tert-butyl-2,5-diazabicyclo[2.2.1]heptan-2-yl)phenyl-amino)-[1,2,4]triazolo[1,5-a]pyrazin-5-yl}-1H-pyrazole-3-carboxylic acid amide]",501 to 1000 nM
9,"CC(C)N1C[C@@H]2C[C@H]1CN2c1ccc(Nc2ncc(-c3ccc4c(c3)CNC4=O)n3ncnc23)cn1 [Compound 18, 5-{8-(6-((1S,4S)-5-isopropyl-2,5-diazabicyclo[2.2.1]heptan-2-yl)pyridin-3-ylamino)-[1,2,4]triazolo[1,5-a]pyrazin-5-yl}-2,3-dihydro-isoindol-1-one]",> 1000 nM
10,"CC(C)N1C[C@@H]2C[C@H]1CN2c1ccc(Nc2ncc(-c3cc(C(N)=O)n[nH]3)n3ncnc23)cc1 [Compound 5, 5-{8-(4-((1S,4S)-5-isopropyl-2,5-diazabicyclo[2.2.1]heptan-2-yl)phenyl-amino)-[1,2,4]triazolo[1,5-a]pyrazin-5-yl}-1H-pyrazole-3-carboxamide]",> 1000 nM
11,"CC(C)N1C[C@@H]2C[C@H]1CN2c1ccc(Nc2ncc(-c3cc[nH]c(=O)c3)n3ccnc23)cc1 [Compound 8, 4-{8-(4-((1S,4S)-5-isopropyl-2,5-diazabicyclo[2.2.1]heptan-2-yl)phenyl-amino)imidazo[1,2-a]pyrazin-5-yl}-1H-pyridin-2-one]",1 to 500 nM
12,"CC(C)N1CC2CCC1CN2c1ccc(Nc2ncc(-c3coc(C(N)=O)c3)n3ncnc23)cc1 (centres unmarked) [Compound 9, 4-{8-(4-(5-isopropyl-2,5-diazabicyclo[2.2.2]octan-2-yl)phenylamino)[1,2,4]-triazolo[1,5-a]pyrazin-5-yl}-furan-2-carboxamide]",> 1000 nM
13,"CC(C)N1C[C@@H]2C[C@H]1CN2c1cccc(Nc2ncc(-c3coc(C(N)=O)c3)n3ccnc23)c1 [Compound 25, 4-(8-(3-((1S,4S)-5-isopropyl-2,5-diazabicyclo[2.2.1]heptan-2-yl)phenylamino)imidazo[1,2-a]pyrazin-5-yl)furan-2-carboxamide]",> 1000 nM
14,"CC(C)N1C[C@@H]2C[C@H]1CN2c1cccc(Nc2ncc(-c3ccc4c(c3)CNC4=O)n3ncnc23)c1 [Compound 26, 5-(8-(3-((1S,4S)-5-isopropyl-2,5-diazabicyclo[2.2.1]heptan-2-yl)phenylamino)-[1,2,4]triazolo[1,5-a]pyrazin-5-yl)isoindolin-1-one]",> 1000 nM
15,"CC(C)N1C2CCC1CN(c1ccc(Nc3ncc(-c4coc(C(N)=O)c4)n4ncnc34)cc1)C2 [Compound 12, 4-{8-(4-(8-isopropyl-3,8-diazabicyclo[3.2.1]octan-3-yl)phenylamino)[1,2,4]-triazolo[1,5-a]pyrazin-5-yl}-furan-2-carboxamide]",> 1000 nM
16,"CC(C)(C)N1C[C@@H]2C[C@H]1CN2c1ccc(Nc2ncc(-c3coc(C(N)=O)c3)n3ncnc23)cc1 [Compound 3, 4-{8-[4-((1S,4S)-5-tert-Butyl-2,5-diaza-bicyclo[2.2.1]hept-2-yl)-phenylamino]-[1,2,4]triazolo[1,5-a]pyrazin-5-yl}-furan-2-carboxamide]",1 to 500 nM
17,"CC(C)N1CC2CCC(C1)N2c1ccc(Nc2ncc(-c3coc(C(N)=O)c3)n3ccnc23)cc1 [Compound 11, 4-{8-(4-(3-isopropyl-3,8-diazabicyclo[3.2.1]octan-8-yl)phenylamino)-imidazo[1,2-a]pyrazin-5-yl}-furan-2-carboxamide]",> 1000 nM
18,"CCOc1cc(-c2cnc(Nc3ccc(N4C[C@@H]5C[C@H]4CN5C(C)C)cc3)c3nccn23)ccn1 [Compound 22, 5-(2-ethoxypyridin-4-yl)-N-(4-((1S,4S)-5-isopropyl-2,5-diazabicyclo[2.2.1]heptan-2-yl)phenyl)imidazo[1,2-a]pyrazin-8-amine]",> 1000 nM
19,CC(C)(C)N1C[C@@H]2C[C@H]1CN2c1ccc(Nc2ncc(-c3coc(C(N)=O)c3)n3ccnc23)cc1 [Compound 6],> 1000 nM
20,"CC(C)N1C[C@@H]2C[C@H]1CN2c1ccc(Nc2ncc(-c3cc(C(N)=O)n[nH]3)n3ncnc23)cn1 [Compound 15, 5-{8-(6-((1S,4S)-5-isopropyl-2,5-diazabicyclo[2.2.1]heptan-2-yl)pyridin-3-ylamino)-[1,2,4]triazolo[1,5-a]pyrazin-5-yl}-1H-pyrazole-3-carboxylic acid amide]",> 1000 nM

# — patent US8012983B2, “Substituted triazolopyrazines useful for the treatment of degenerative and inflammatory diseases” (Galapagos NV, priority 2008, dated 2011)
